According to article PMC3652757, “Enhancement of fermentable sugar yields by α-xylosidase supplementation of commercial cellulases” (Biotechnology for Biofuels, 2013):

Biological target: T1, AxlA (Aspergillus niger, UniProt A2QTU5)
T1 sequence (A2QTU5 19-736): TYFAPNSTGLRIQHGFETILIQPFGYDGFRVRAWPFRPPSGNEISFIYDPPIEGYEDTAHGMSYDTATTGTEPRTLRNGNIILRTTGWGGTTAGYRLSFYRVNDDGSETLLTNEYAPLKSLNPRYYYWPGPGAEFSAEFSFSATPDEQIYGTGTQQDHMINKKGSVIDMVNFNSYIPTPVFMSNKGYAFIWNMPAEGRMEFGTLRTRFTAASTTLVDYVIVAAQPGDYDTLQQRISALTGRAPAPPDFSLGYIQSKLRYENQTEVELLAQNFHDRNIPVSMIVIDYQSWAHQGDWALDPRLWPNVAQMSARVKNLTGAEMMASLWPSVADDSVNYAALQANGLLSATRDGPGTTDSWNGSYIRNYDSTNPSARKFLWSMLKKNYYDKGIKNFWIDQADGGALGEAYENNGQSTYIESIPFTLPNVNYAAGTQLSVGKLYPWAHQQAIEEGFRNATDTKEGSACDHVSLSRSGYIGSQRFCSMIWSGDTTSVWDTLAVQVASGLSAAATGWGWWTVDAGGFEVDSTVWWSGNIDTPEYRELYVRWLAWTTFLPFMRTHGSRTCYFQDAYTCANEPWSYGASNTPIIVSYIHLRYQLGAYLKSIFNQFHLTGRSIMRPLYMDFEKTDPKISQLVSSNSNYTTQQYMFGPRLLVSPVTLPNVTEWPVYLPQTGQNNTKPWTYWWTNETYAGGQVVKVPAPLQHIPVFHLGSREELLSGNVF
Test: pNPαX hydrolysis competition, nonlinear curve fitting
Assay type: biochemical
Settings: substrate p-nitrophenyl-α-xyloside 0-20 mM; reaction product

`OC1OC[C@@H](O)[C@H](O)[C@H]1O` (stereo partly shown) [Xyl] gave a Ki of 13.7 mM.
